Results on seven compounds are retold here after US11865181B2, “Peptidic materials that traffic efficiently to the cell cytosol and nucleus” (Yale University, priority 2017, dated 2024).

Like-named read-outs stand apart in the source and are kept apart here. Positions of bridges follow the written chain, without caps; N, C: chain ends. Non-standard residues stand in square brackets, D forms with d. Residues, ends and D or L forms follow the SMILES beside them. R8 = C=CCCCCCC[C@@](C)(N)C(=O)O; S5 = C=CCCC[C@](C)(N)C(=O)O

Series [1] relates to hDM2-overexpressing SJSA-1 cells. Format: cell-based. As to the method:
SJSA-1 cells were seeded into a 96-well plate (2,000 cells/well) and incubated overnight at 37° C. After washing twice in PBS, cells are incubated with peptide or Nutlin-3a (Santa Cruz Biotechnology, Santa Cruz, Calif.) in Opti-MEM (Invitrogen, Carlsbad, Calif.) for 24 hours. Cell viability was then assayed using CellTiter-Glo (Promega, Madison, Wis.) according to the manufacturer's protocol. Luminescence measurements were taken on a SpectraMax M5 plate reader (Molecular Devices, Sunnyvale, Calif.).
Previously it has been shown that the efficacy with which hydrocarbon-stapled peptides reach the cytosol correlates with their efficacy in cell-based assays (LaRochelle et al., J. Am. Chem. Soc., 2015, 137, 2536-2541). To examine whether the biological activity of these penta-arg peptides correlated with how efficiently they accessed the cytosol, cell viability assays were performed using N-acetylated versions of the peptides and hDM2-overexpressing SJSA-1 cells (FIG. 4 and FIG. 5).

Series [2] has as its system HeLa cells. The settings on record: cited from earlier work.
The test system of series [3] is hDM2-overexpressing SJSA-1 cells. The settings on record: literature values (Bernal et al. 2007; 2010); read-out: previously reported EC50, SJSA-1 cell viability; cited from earlier work.

The term EC50 denotes the midpoint of the concentration-response curve. For the compound `CC(=O)N[C@@H](CC(C)C)C(=O)N[C@@H](CO)C(=O)N[C@@H](CCC(N)=O)C(=O)N[C@@H](CCC(=O)O)C(=O)N[C@H](C(=O)N[C@@H](Cc1ccccc1)C(=O)N[C@]1(C)CCCCCCC=CCCC[C@@](C)(C(=O)N[C@@H](CCCNC(=N)N)C(=O)N[C@@H](CCCNC(=N)N)C(N)=O)NC(=O)[C@H](CC(C)C)NC(=O)[C@H](CCCNC(=N)N)NC(=O)[C@H](CCCNC(=N)N)NC(=O)[C@H](Cc2c[nH]c3ccccc23)NC(=O)[C@H](CC(C)C)NC(=O)[C@H](CCCNC(=N)N)NC1=O)[C@@H](C)O` [BP1.6^Ac, Ac-LSQETFR8RLWRRLS5RR-NH2] (Ac-LSQETF[R8]RLWRRL[S5]RR-NH2; staple 7-14), in series [1] (24 h), the EC50 was found to be 1.9 µM.
As for `CC(=O)N[C@@H](CC(C)C)C(=O)N[C@@H](CO)C(=O)N[C@@H](CCC(N)=O)C(=O)N[C@@H](CCC(=O)O)C(=O)N[C@H](C(=O)N[C@@H](C)C(=O)N[C@]1(C)CCCCCCC=CCCC[C@@](C)(C(=O)N[C@@H](CCCNC(=N)N)C(=O)N[C@@H](CCCNC(=N)N)C(N)=O)NC(=O)[C@H](CC(C)C)NC(=O)[C@H](CCCNC(=N)N)NC(=O)[C@H](CCCNC(=N)N)NC(=O)[C@H](Cc2c[nH]c3ccccc23)NC(=O)[C@H](CC(C)C)NC(=O)[C@H](CCCNC(=N)N)NC1=O)[C@@H](C)O` [BP1.6F19A^Ac, Ac-LSQETAR8RLWRRLS5RR-NH2] (Ac-LSQETA[R8]RLWRRL[S5]RR-NH2; staple 7-14), the EC50 in series [1] (24 h) came out at 4.8 µM.
On to “Ac-LSQETFR8DLWKLLS5EN-NH2 (Ac-LSQETF[R8]DLWKLL[S5]EN-NH2; staple 7-14) [SAH-p53-4, N-acetylated SAH-p53-4, reference compound]”, for which the “ability to breach the plasma membrane as judged by flow cytometry” value in series [2] was “fails to effectively breach the plasma membrane”. In addition, in series [1] (concentrations as high as 60 μM, 24 hours), the “effect on SJSA-1 cell viability (in words)” value is listed as “no decrease in viability”.
For `CC(=O)N[C@@H](CC(C)C)C(=O)N[C@@H](CCCNC(=N)N)C(=O)N[C@@H](CCCNC(=N)N)C(=O)N[C@@H](CCC(=O)O)C(=O)N[C@H](C(=O)N[C@@H](Cc1ccccc1)C(=O)N[C@]1(C)CCCCCCC=CCCC[C@@](C)(C(=O)N[C@@H](CCCNC(=N)N)C(=O)N[C@@H](CC(N)=O)C(N)=O)NC(=O)[C@H](CC(C)C)NC(=O)[C@H](CCCNC(=N)N)NC(=O)[C@H](CCCCN)NC(=O)[C@H](Cc2c[nH]c3ccccc23)NC(=O)[C@H](CCCNC(=N)N)NC(=O)[C@H](CC(=O)O)NC1=O)[C@@H](C)O` [BP1.5^Ac, Ac-LRRETFR8DRWKRLS5RN-NH2] (Ac-LRRETF[R8]DRWKRL[S5]RN-NH2; staple 7-14), the EC50 in series [1] (24 h) was determined as 7.7 µM.
On to `COc1ccc(C2=N[C@@H](c3ccc(Cl)cc3)[C@@H](c3ccc(Cl)cc3)N2C(=O)N2CCNC(=O)C2)c(OC(C)C)c1` [Nutlin-3a, reference compound], for which the EC50 in series [1] (24 hours in Opti-MEM, N-acetylated peptides, read-out: EC50, decrease in SJSA-1 cell viability) is 22.8 µM; in series [3] it was roughly 7 µM.
`CC(=O)N[C@@H](CCCNC(=N)N)C(=O)N[C@@H](CO)C(=O)N[C@@H](CCC(N)=O)C(=O)N[C@@H](CCC(=O)O)C(=O)N[C@@H](CCCNC(=N)N)C(=O)N[C@@H](Cc1ccccc1)C(=O)N[C@]1(C)CCCCCCC=CCCC[C@@](C)(C(=O)N[C@@H](CCCNC(=N)N)C(=O)N[C@@H](CCCNC(=N)N)C(N)=O)NC(=O)[C@H](CC(C)C)NC(=O)[C@H](CCCNC(=N)N)NC(=O)[C@H](CCCCN)NC(=O)[C@H](Cc2c[nH]c3ccccc23)NC(=O)[C@H](CC(C)C)NC(=O)[C@H](CC(=O)O)NC1=O` [BP1.4^Ac, Ac-RSQERFR8DLWKRLS5RR-NH2] (Ac-RSQERF[R8]DLWKRL[S5]RR-NH2; staple 7-14) came in with an EC50 in series [1] (24 h) of 7.7 µM.
For the compound `CC(=O)N[C@@H](CCCNC(=N)N)C(=O)N[C@@H](CO)C(=O)N[C@@H](CCC(N)=O)C(=O)N[C@@H](CCCNC(=N)N)C(=O)N[C@@H](CCCNC(=N)N)C(=O)N[C@@H](Cc1ccccc1)C(=O)N[C@]1(C)CCCCCCC=CCCC[C@@](C)(C(=O)N[C@@H](CCC(=O)O)C(=O)N[C@@H](CC(N)=O)C(N)=O)NC(=O)[C@H](CC(C)C)NC(=O)[C@H](CC(C)C)NC(=O)[C@H](CCCNC(=N)N)NC(=O)[C@H](Cc2c[nH]c3ccccc23)NC(=O)[C@H](CC(=O)O)NC(=O)[C@H](CCCNC(=N)N)NC1=O` [BP1.2^Ac, Ac-RSQRRFR8RDWRLLS5EN-NH2] (Ac-RSQRRF[R8]RDWRLL[S5]EN-NH2; staple 7-14), the EC50 in series [1] (24 h) is 1.9 µM.
